For data set [1] the following is noted: natural zinc, blood to brain across the BBB; cited from earlier work.
In data set [2] the test system is GFAP.
Data set [3] deals with astroglia. The note with it: FIG. 2.
Data set [4] relates to microglia/macrophages. Particulars: FIG. 7; LPS-lesioned rats.
For data set [5], the system named is CD206. The data set can be described thus: CD206 expression (FIG. 5).
The test system of data set [6] is microglia. The data set can be described thus: Reactive oxygen species in microglia (FIG. 6).
Data set [7] deals with circulating leukocytes. The data set can be described thus: Absolute number of circulating leukocytes (FIG. 3). Particulars: rodents.

Take `[Zn]` [zinc]: the “zinc in the blood taken up by brain tissues” value in data set [1] is reported as 2-3%.

Regarding ^64Zn L-Aspartate, the GFAP in blood entry in data set [2] (FIG. 1A, blood) is “significant reduction”. The “GFAP in the brain and periphery” value in data set [2] (FIG. 1B, brain and periphery) is listed as “significant reduction”. The “inflammation as evidenced by astroglia” value in data set [3] is “lowered the inflammation significantly”. Besides, the “oxidative stress as indicated by metabolic characteristics of microglia/macrophages” value in data set [4] was “significantly reduced oxidative stress”. The CD206 expression result in data set [5] is given as “reduction”. The “reactive oxygen species in microglia” value in data set [6] is on record as “reduction”. Also, the “absolute number of circulating leukocytes” value in data set [7] is “normalization”.

Source of the values: US20250375475A1 (priority 2024, published 2025).
